Reference: US11458188B2, “ABC transporter peptide inhibitor XH-14C and application thereof” (HUNAN UNIVERSITY OF SCIENCE AND ENGINEERING, priority 2020, dated 2022)
Where two headings read alike, the source gives them in different places. Blank lines part the entries; values can stand above or below the compound they belong to.

Assays:
[1] = test system: parental cancer cell line KB-3-1; assay: MDR reversal study (MTT), parental cancer cell line; type: cell-based; details: for IC50: read-out: IC50, chemotherapeutic alone
Protocol: (§1) The cytotoxicity of the peptide in different cell lines was measured by modified MTT assay. 5,000 cells per well were seeded in a 96-well microplate and cultured overnight. Peptides and positive control were added in a designated concentration gradient. The plate was incubated for 68 h, and then added with 20 μL of MTT solution (4 mg/mL) per well and incubated for another 4 h. The medium was pipetted, to which 100 μL of DMSO was added to dissolve the formaldehyde crystals. The absorbance was measured at 570 nm with a UV/Vis microplate spectrophotometer.

[2] = test system: drug-induced ABCB1-overexpressing cancer cell line KB-C2; assay: MDR reversal study (MTT), drug-induced ABCB1-overexpressing cell line; details: Table 3, IC50 divided by IC50 in KB-3-1
Protocol: as §1

[3] = test system: transfected empty vector cell line HEK293/pcDNA3.1; assay: MDR reversal study (MTT), transfected empty vector cell line; type: cell-based; details: for IC50: read-out: IC50, chemotherapeutic alone
Protocol: as §1

[4] = test system: transfected ABCB1-overexpressing cell line HEK293/ABCB1; assay: MDR reversal study (MTT), transfected ABCB1-overexpressing cell line; details: Table 4, IC50 divided by IC50 in HEK293/pcDNA3.1
Protocol: as §1

[5] = test system: transfected ABCC1-overexpressing cell line HEK293/ABCC1; assay: MDR reversal study (MTT), transfected ABCC1-overexpressing cell line; type: cell-based; details: for IC50: Table 6, no reversal agent, read-out: IC50, chemotherapeutic alone
[6] = test system: drug-induced ABCC1-overexpressing cancer cell line KB-CV60; assay: MDR reversal study (MTT), drug-induced ABCC1-overexpressing cell line; type: cell-based; details: for IC50: Table 5, no reversal agent, read-out: IC50, chemotherapeutic alone
parental cells (KB-3-1) = assay: Modified MTT cytotoxicity assay, parental cells; details: Homo sapiens, KB 3-1, 72 h, read-out: IC50 (cytotoxicity), KB-3-1
[7] = test system: ABCB1-overexpressing cancer cells (KB-C2); assay: Modified MTT cytotoxicity assay, ABCB1-overexpressing cells; details: Homo sapiens, KB-C2, 72 h, read-out: IC50 (cytotoxicity), KB-C2
Protocol: as §1

[8] = test system: ABCC1-overexpressing cancer cells (KB-CV60); assay: Modified MTT cytotoxicity assay, ABCC1-overexpressing cells; details: KB-CV60, 72 h, read-out: IC50 (cytotoxicity), KB-CV60

SMILES: COc1cccc2c1C(=O)c1c(O)c3c(c(O)c1C2=O)C[C@@](O)(C(=O)CO)C[C@@H]3O[C@H]1C[C@H](N)[C@H](O)[C@H](C)O1 [Adriamycin]
- RF (resistant fold), chemotherapeutic alone ([1]; Table 3, no reversal agent): 1.00
- RF (resistant fold), chemotherapeutic alone [2]: 58.84
- RF (resistance fold), chemotherapeutic alone ([3]; Table 4, no reversal agent): 1.00
- RF (resistance fold), chemotherapeutic alone [4]: 25.29

SMILES: N.N.[Cl][Pt][Cl] [Cisplatin]
- IC50 ([1]; Table 3, no reversal agent): 1.79 µM
- IC50 ([1]; Table 5, no reversal agent): 1.79 µM
- IC50 [5]: 2.23 µM
- IC50 [6]: 2.23 µM
- IC50 ([3]; Table 4, no reversal agent): 2.21 µM
- IC50 ([3]; Table 6, no reversal agent): 2.21 µM

SMILES: CN(C)C(=O)CCSC(SCCC(=O)O)c1cccc(/C=C/c2ccc3ccc(Cl)cc3n2)c1 (centres unmarked) [MK571]
- RF of Cisplatin + MK571 ([3]; Table 6, MK571 5 μM): 0.99
- RF of Vincristine + MK571 ([3]; Table 6, MK571 5 μM): 1.02

SMILES: CC(=O)O[C@H]1C(=O)[C@@]2(C)[C@H]([C@H](OC(=O)c3ccccc3)[C@]3(O)C[C@H](OC(=O)[C@H](O)[C@@H](NC(=O)c4ccccc4)c4ccccc4)C(C)=C1C3(C)C)[C@]1(OC(C)=O)CO[C@@H]1C[C@@H]2O [Paclitaxel]
- IC50 (parental cells (KB-3-1)): 0.03 µM
- RF (resistant fold), chemotherapeutic alone ([1]; Table 3, no reversal agent): 1.00
- IC50 [7]: 1.77 µM

- IC50 [6]: 16.1 µM
SMILES: CC[C@]1(O)C[C@H]2CN(CCc3c([nH]c4ccccc34)[C@@](C(=O)OC)(c3cc4c(cc3OC)N(C=O)[C@H]3[C@@](O)(C(=O)OC)[C@H](OC(C)=O)[C@]5(CC)C=CCN6CC[C@]43[C@@H]65)C2)C1 [Vincristine]
- IC50 (parental cells (KB-3-1)): 0.095 µM
- RF (resistance fold), chemotherapeutic alone ([1]; Table 5, no reversal agent): 1.00
- RF (resistance fold), chemotherapeutic alone ([5]; Table 6, IC50 divided by IC50 in HEK293/pcDNA3.1): 19.79
- IC50 [5]: 2.71 µM
- RF (resistance fold), chemotherapeutic alone ([6]; Table 5, IC50 divided by IC50 in KB-3-1): 169.05
- RF (resistance fold), chemotherapeutic alone ([3]; Table 6, no reversal agent): 1.00
- IC50 [8]: 16.1 µM
